Laboratory results taken from article PMC10766964, “Copper-catalyzed synthesis of pyrazolo[1,5-a]pyrimidine based triazole-linked glycohybrids: mechanistic insights and bio-applications” (Scientific Reports, 2024).
Like-named read-outs stand apart in the source and are kept apart here.

Key:
[1] = tested on: MDA-MB-231 (human breast cancer) cell line; assay: MTT cell viability assay in MDA-MB-231 cells; assay type: cell-based; conditions: 72 h, positive control at 20 nM
Protocol: Thus, we screened the synthesized library of pyrazolo[1,5-a]pyrimidin-7-ols 4a–4i. Anticancer activity (in terms of growth inhibition/decreased cell viability with respect to control) of all synthesized compounds (n = 9) was investigated by MTT assay in MDA-MB-231 (human breast cancer) cell line at different concentrations for 72 h. […] Thus, it was aimed to investigate the anticancer activity of a synthesized library of triazole-linked glycohybrids of pyrazolo[1,5-a]pyrimidines. […] The MTT assay was used to investigate the anticancer activity of twenty-seven synthesized compounds on the growth inhibition and decrement in cell viability of MDA-MB-231 (human breast cancer). Different concentrations were tested for 72 h, and the results were compared to a control. MDA-MB-231, a human breast cancer cell line, was cultured under standard conditions. Specifically, they were grown in Dulbecco’s Modified Eagle’s Medium (DMEM) supplemented with 10% heat-inactivated Fetal Bovine Serum (FBS) and 1% penicillin–streptomycin. The cells were maintained as a monolayer in a 100 mm culture plate and were used for experiments before reaching their 8th passage. Subculturing was performed every third-day using trypsin EDTA treatment. All incubation and maintenance procedures were carried out in a humidified CO2 incubator at 37 °C. To evaluate cell viability, the MTT assay was conducted following standard procedures. After 72 h of cell incubation with or without each compound, cell viability was assessed using MTT (3-(4,5-dimethylthiazol-2-yl)-2,5-diphenyltetrazolium bromide), which is a colorimetric method for determining the number of viable cells in various assays including proliferation, cytotoxicity, or chemosensitivity. The MTT reagent was added to the cells after removal of the medium and incubated for 3 h at 37 °C in the CO2 incubator. The formazan product, which is […] in the tissue culture medium, was dissolved in DMSO, and the absorbance of the formazan product was directly measured at 595 nm using a multimode plate reader without additional processing. The absorbance values are directly proportional to the number of viable cells in culture. The percentage of viable cells in each group was determined relative to the untreated control cells.

[2] = tested on: MCF-7 (hormone receptor/HR-positive breast cancer cells); assay: MTT cell viability assay in MCF-7 cells; assay type: cell-based; conditions: Homo sapiens, MCF7; MCF-7, positive control at 20 nM; read-out: Cell viability (%) ± SD
Protocol: MDA-MB-231 represents a specific subtype known as triple-negative breast cancer (TNBC). The investigation study was extended with active six hit compounds (9a, 9d, 9h, 10d, 10f, and 11g) in two other different cancer cell lines (MCF-7 and MDA-MB-453), each representing a separate class of breast cancers (MCF-7: hormone receptor/HR-positive; MDA-MB-453: human epidermal growth factor 2 receptor/HER2 positive).
We also included normal mammary epithelial MCF-10A cells in our experiments to confirm if the growth-inhibitory activities of the selected compounds are truly cancer cell-specific. The activity data from MCF-7 and MDA-MB-453 cell lines (tested at 1 µM, 10 µM and 25 µM) and activity data from MCF-10A cell line (tested at 25 µM, 50 µM and 100 µM) are summarized in Table 3.
(§1) To evaluate cell viability, the MTT assay was conducted following standard procedures. After 72 h of cell incubation with or without each compound, cell viability was assessed using MTT (3-(4,5-dimethylthiazol-2-yl)-2,5-diphenyltetrazolium bromide), which is a colorimetric method for determining the number of viable cells in various assays including proliferation, cytotoxicity, or chemosensitivity. The MTT reagent was added to the cells after removal of the medium and incubated for 3 h at 37 °C in the CO2 incubator. The formazan product, which is […] in the tissue culture medium, was dissolved in DMSO, and the absorbance of the formazan product was directly measured at 595 nm using a multimode plate reader without additional processing. The absorbance values are directly proportional to the number of viable cells in culture. The percentage of viable cells in each group was determined relative to the untreated control cells.

[3] = MTT cell viability assay in normal MCF-10A cells; assay type: cell-based; conditions: human, MCF-10A normal mammary epithelial cells; MCF-10A normal cells, positive control at 20 nM; read-out: Cell viability (%) ± SD
Protocol: as §1, with “We also included normal mammary epithelial MCF-10A cells in our experiments to confirm if the growth-inhibitory activities of the selected compounds are truly cancer cell-specific. The activity data from MCF-7 and MDA-MB-453 cell lines (tested at 1 µM, 10 µM and 25 µM) and activity data from MCF-10A cell line (tested at 25 µM, 50 µM and 100 µM) are summarized in Table 3. To” for “To”

[4] = tested on: MDA-MB-453 (HER2 positive breast cancer cells); assay: MTT cell viability assay in MDA-MB-453 cells; assay type: cell-based, human; conditions: Homo sapiens; MDA-MB-453, positive control at 20 nM; read-out: Cell viability (%) ± SD
Protocol: MDA-MB-231 represents a specific subtype known as triple-negative breast cancer (TNBC). The investigation study was extended with active six hit compounds (9a, 9d, 9h, 10d, 10f, and 11g) in two other different cancer cell lines (MCF-7 and MDA-MB-453), each representing a separate class of breast cancers (MCF-7: hormone receptor/HR-positive; MDA-MB-453: human epidermal growth factor 2 receptor/HER2 positive). […] We also included normal mammary epithelial MCF-10A cells in our experiments to confirm if the growth-inhibitory activities of the selected compounds are truly cancer cell-specific. The activity data from MCF-7 and MDA-MB-453 cell lines (tested at 1 µM, 10 µM and 25 µM) and activity data from MCF-10A cell line (tested at 25 µM, 50 µM and 100 µM) are summarized in Table 3. To evaluate cell viability, the MTT assay was conducted following standard procedures. After 72 h of cell incubation with or without each compound, cell viability was assessed using MTT (3-(4,5-dimethylthiazol-2-yl)-2,5-diphenyltetrazolium bromide), which is a colorimetric method for determining the number of viable cells in various assays including proliferation, cytotoxicity, or chemosensitivity. The MTT reagent was added to the cells after removal of the medium and incubated for 3 h at 37 °C in the CO2 incubator. The formazan product, which is […] in the tissue culture medium, was dissolved in DMSO, and the absorbance of the formazan product was directly measured at 595 nm using a multimode plate reader without additional processing. The absorbance values are directly proportional to the number of viable cells in culture. The percentage of viable cells in each group was determined relative to the untreated control cells.

In the case of `COCCn1c2c([n+](Cc3cnccn3)c1C)C(=O)c1ccccc1C2=O` [YM155, reference compound], the viability at 0.02 µM ([1]; Table 1, MDA-MB-231, MTT, read-out: Cell Viability (%) ± SD) is reported as 20.4 ± 5.13%, the viability at 0.02 µM ([1]; Table 2, MDA-MB-231, MTT, read-out: Cell viability (%) ± SD) is reported as 26.4 ± 3.93% and the viability at 0.02 µM [2] is reported as 32.2 ± 1.7%. It also gave a viability at 72 h, 0.02 µM [3] of 38.2 ± 1.6% and a viability at 0.02 µM [4] of 35.2 ± 1.5%.
